From patent publication US20050038007A1, “Dosage forms of cholesteryl ester transfer protein inhibitors and HMG-CoA reductase inhibitors” (Pfizer Inc, priority 2003, published 2005)

Test: Aqueous solubility of torcetrapib
Format: physicochemical
Conditions: water (aqueous), at about 22° C.
Description: The CETP inhibitor may be any compound capable of inhibiting the cholesteryl ester transfer protein. […] Many CETP inhibitors have even lower solubilities (some even less than 0.1 μg/mL), and require dramatic concentration enhancement to be sufficiently bioavailable upon oral dosing for effective plasma concentrations to be reached at practical doses.
CETP inhibitors, in particular torcetrapib, and methods for preparing such compounds are disclosed in detail in U.S. Pat. Nos. 6,197,786 and 6,313,142, in PCT Application Nos. WO 01/40190A1, WO 02/088085A2, and WO 02/088069A2, the disclosures of which are herein incorporated by reference. Torcetrapib has an unusually low solubility in aqueous environments such as the lumenal fluid of the human GI tract. The aqueous solubility of torcetrapib is less than about 0.04 μg/ml. Torcetrapib must be presented to the GI tract in a solubility-improved form in order to achieve a sufficient drug concentration in the GI tract in order to achieve sufficient absorption into the blood to elicit the desired therapeutic effect.

solubility: < 0.04 µg/mL
SMILES: CCOC(=O)N1c2ccc(C(F)(F)F)cc2[C@@H](N(Cc2cc(C(F)(F)F)cc(C(F)(F)F)c2)C(=O)OC)C[C@H]1CC [Torcetrapib, [2R,4S]-4-[(3,5-bis-trifluoromethyl-benzyl)-methoxycarbonyl-amino]-2-ethyl-6-trifluoromethyl-3,4-dihydro-2H-quinoline-1-carboxylic acid ethyl ester]
